Values after ≈ are worked out from the molar mass of the structure shown.
Key:
Type in all cases: cell-based
[1] = system: Staphylococcus aureus; test: MIC by agar dilution (NCCLS), 411 isolates Buenos Aires 1998-99; settings: for MIC90: Staphylococcus aureus
[2] = system: Streptococcus pyogenes; test: MIC by NCCLS reference broth microdilution, 450 respiratory tract pathogens; settings: for MIC / MIC50 / MIC90: Streptococcus pyogenes
[3] = system: Staphylococcus aureus; test: as above
[4] = system: Haemophilus influenzae; test: MIC by broth microdilution (NCCLS), dried MicroScan panels, clinical isolates 1998-1999; settings: for MIC90: Haemophilus influenzae
[5] = system: Moraxella catarrhalis; test: MIC by two-fold serial agar dilution, Sensitivity Disk agar-N (Kitasato isolates); settings: Moraxella catarrhalis (22)
[6] = system: Staphylococcus aureus; test: microbe, parasite or virus in culture
[7] = S. aureus, Methicillin resistant (n = 14)
[8] = S. aureus, Methicillin susceptible (n = 66)
[9] = Streptococcus pyogenes (n = 100)
[10] = erythromycin resistant C phenotype [MLSB] (n = 20)
[11] = erythromycin resistant I phenotype [MLSB] (n = 20)
[12] = erythromycin resistant M phenotype (n = 20)
[13] = β-lactamase positive and erythromycin resistant (n = 10)
[14] = Haemophilus influenzae (300 isolates)

Question: `CO/N=C1\CN(c2nc3c(cc2F)c(=O)c(C(=O)O)cn3C2CC2)CC1CN` (racemic) [Gemifloxacin, (R,S)-7-(3-aminomethyl-4-methoxyiminopyrrolidin-1-yl)-1-cyclopropyl-6-fluoro-4-oxo-1,4-dihydro-1,8-naphthyridine-3-carboxylic acid] was tested. Which “Resistance (%)” value [1, 7] did it give?
Answer: 0%

Question: And the “Resistance (%)” value [1, 8]?
Answer: 0%

Question: And the “MIC Range” value ([1]; Staphylococcus aureus (n = 80))?
Answer: ≤0.004 to 2 µg/mL

Question: What about the MIC90 [1, 7] of the same molecule?
Answer: 2 µg/mL (≈ 5.14 µM)

Question: And the MIC90 [1, 8]?
Answer: 0.03 µg/mL (≈ 0.077 µM)

Question: What about the MIC90 ([1]; Staphylococcus aureus (n = 80)) of the same molecule?
Answer: 1 µg/mL (≈ 2.57 µM)

Question: And the “activity higher than that of the other fluoroquinolones tested” value ([2]; S. pyogenes)?
Answer: 2-32 fold

Question: And the MIC [2, 9]?
Answer: 0.00375 to 0.06 µg/mL (≈ 0.00963 to 0.154 µM)

Question: What about the MIC50 [2, 9] of the same molecule?
Answer: 0.015 µg/mL (≈ 0.0385 µM)

Question: And the MIC90 [2, 9]?
Answer: 0.03 µg/mL (≈ 0.077 µM)

Question: What about the MIC [2, 10] of the same molecule?
Answer: 0.00375 to 0.03 µg/mL (≈ 0.00963 to 0.077 µM)

Question: And the MIC50 [2, 10]?
Answer: 0.015 µg/mL (≈ 0.0385 µM)

Question: And the MIC90 [2, 10]?
Answer: 0.015 µg/mL (≈ 0.0385 µM)

Question: And the MIC [2, 11]?
Answer: 0.00375 to 0.06 µg/mL (≈ 0.00963 to 0.154 µM)

Question: And the MIC50 [2, 11]?
Answer: 0.015 µg/mL (≈ 0.0385 µM)

Question: What about the MIC90 [2, 11] of the same molecule?
Answer: 0.03 µg/mL (≈ 0.077 µM)

Question: What about the MIC [2, 12] of the same molecule?
Answer: 0.00375 to 0.03 µg/mL (≈ 0.00963 to 0.077 µM)

Question: And the MIC50 [2, 12]?
Answer: 0.015 µg/mL (≈ 0.0385 µM)

Question: What about the MIC90 [2, 12] of the same molecule?
Answer: 0.015 µg/mL (≈ 0.0385 µM)

Question: What about the MIC ([2]; fully susceptible (n = 20)) of the same molecule?
Answer: 0.0075 to 0.03 µg/mL (≈ 0.0193 to 0.077 µM)

Question: And the MIC50 ([2]; fully susceptible (n = 20))?
Answer: 0.015 µg/mL (≈ 0.0385 µM)

Question: And the MIC90 ([2]; fully susceptible (n = 20))?
Answer: 0.03 µg/mL (≈ 0.077 µM)

Question: What about the MIC ([2]; multi-drug resistant (n = 20)) of the same molecule?
Answer: 0.0075 to 0.015 µg/mL (≈ 0.0193 to 0.0385 µM)

Question: What about the MIC50 ([2]; multi-drug resistant (n = 20)) of the same molecule?
Answer: 0.015 µg/mL (≈ 0.0385 µM)

Question: What about the MIC90 ([2]; multi-drug resistant (n = 20)) of the same molecule?
Answer: 0.03 µg/mL (≈ 0.077 µM)

Question: What about the MIC ([3]; Staphylococcus aureus (n = 50)) of the same molecule?
Answer: 0.00375 to 0.12 µg/mL (≈ 0.00963 to 0.308 µM)

Question: What about the MIC50 ([3]; Staphylococcus aureus (n = 50)) of the same molecule?
Answer: 0.06 µg/mL (≈ 0.154 µM)

Question: What about the MIC90 ([3]; Staphylococcus aureus (n = 50)) of the same molecule?
Answer: 0.12 µg/mL (≈ 0.308 µM)

Question: And the MIC ([3]; β-lactamase negative (n = 20))?
Answer: 0.06 to 0.12 µg/mL (≈ 0.154 to 0.308 µM)

Question: What about the MIC50 ([3]; β-lactamase negative (n = 20)) of the same molecule?
Answer: 0.12 µg/mL (≈ 0.308 µM)

Question: What about the MIC90 ([3]; β-lactamase negative (n = 20)) of the same molecule?
Answer: 0.12 µg/mL (≈ 0.308 µM)

Question: What about the MIC ([3]; β-lactamase positive (n = 20)) of the same molecule?
Answer: 0.00375 to 0.12 µg/mL (≈ 0.00963 to 0.308 µM)

Question: What about the MIC50 ([3]; β-lactamase positive (n = 20)) of the same molecule?
Answer: 0.12 µg/mL (≈ 0.308 µM)

Question: What about the MIC90 ([3]; β-lactamase positive (n = 20)) of the same molecule?
Answer: 0.123 µg/mL (≈ 0.316 µM)

Question: What about the MIC [3, 13] of the same molecule?
Answer: 0.06 to 0.12 µg/mL (≈ 0.154 to 0.308 µM)

Question: And the MIC50 [3, 13]?
Answer: 0.06 µg/mL (≈ 0.154 µM)

Question: And the MIC90 [3, 13]?
Answer: 0.06 µg/mL (≈ 0.154 µM)

Question: What about the “activity superior to that of levofloxacin” value ([4]; H. influenzae) of the same molecule?
Answer: four-fold

Question: And the MIC50 [4, 14]?
Answer: 0.004 µg/mL (≈ 0.0103 µM)

Question: What about the “MIC Range” value [4, 14] of the same molecule?
Answer: ≤0.0015 to 0.12 µg/mL

Question: What about the MIC90 [4, 14] of the same molecule?
Answer: 0.008 µg/mL (≈ 0.0205 µM)

Question: And the MIC90 ([4]; β-lactamase negative (234))?
Answer: 0.008 µg/mL (≈ 0.0205 µM)

Question: What about the MIC90 ([4]; β-lactamase positive (66)) of the same molecule?
Answer: 0.03 µg/mL (≈ 0.077 µM)

Question: What about the MIC50 [5] of the same molecule?
Answer: 0.031 µg/mL (≈ 0.0796 µM)

Question: What about the MIC90 [5] of the same molecule?
Answer: 0.031 µg/mL (≈ 0.0796 µM)

Question: What about the “MIC Range” value [5] of the same molecule?
Answer: 0.016 to 0.031 µg/mL

Question: And the “MIC Range” value ([6]; Methicillin-resistant (38))?
Answer: 0.031 to 32 µg/mL

Question: And the “MIC Range” value ([6]; Methicillin-susceptible (9))?
Answer: 0.031 to 0.25 µg/mL

Question: What about the “increase of MIC” value ([6]; S. aureus KU2240 with a single mutation in NorA, DNA gyrase or topoisomerase IV) of the same molecule?
Answer: 2-4 fold

Question: And the MIC90 ([6]; Staphylococcus aureus, Methicillin-susceptible (9), read-out: MIC90)?
Answer: 0.25 µg/mL (≈ 0.642 µM)

Question: And the MIC ([6]; Staphylococcus aureus, S. aureus KU2240, mutant type Wild (wild strain))?
Answer: 0.031 µg/mL (≈ 0.0796 µM)

Question: What about the MIC ([6]; Staphylococcus aureus, S. aureus KU2240, read-out: MIC) of the same molecule?
Answer: 0.031 µg/mL (≈ 0.0796 µM)

Question: What about the MIC ([6]; Staphylococcus aureus, S. aureus KU2241, mutant type NorA (efflux-mediated quinolone resistant)) of the same molecule?
Answer: 0.063 µg/mL (≈ 0.162 µM)

— patent publication EP1561465A2, “Methods of use of fluoroquinolone compounds against bacteria” (LG Life Sciences, Ltd., priority 1999, dated 2001)
